What was measured:
CEW (Helicoverpa zea) = assay: Bioassay on Corn Earworm (CEW), 128-well diet tray; assay type: in vivo; settings: percent mortality, second instar larvae, five to seven days; for pest or weed control at 0.5 µg/cm2 / pest or weed control at 50 µg/cm2: Helicoverpa zea, 168 h; for pest or weed control at 0.5 µg/cm2: 0.5 μg/cm^2 on diet, read-out: Rating CEW (*Tested at 0.5 μg/cm^2); for pest or weed control at 50 µg/cm2: 50 μg/cm^2 on diet, read-out: Rating CEW
Description: (§1) Certain molecules disclosed in this document were tested against BAW and CEW using procedures described in the following examples. In the reporting of the results, the “BAW & CEW Rating Table” was used (See Table Section).
Bioassays on CEW (Helicoverpa zea)
(§2) Trays were covered with a clear self-adhesive cover and held at 25° C., 14:10 light-dark for five to seven days. Percent mortality was recorded for the larvae in each well; activity in the eight wells was then averaged. The results are indicated in the table entitled “Table ABC: Biological Results” (See Table Section).

BAW (Spodoptera exigua) = assay: Bioassay on Beet Armyworm (BAW), 128-well diet tray; assay type: in vivo; settings: percent mortality, second instar larvae, five to seven days; for pest or weed control at 50 µg/cm2: Spodoptera exigua, 168 h, 50 μg/cm^2 on diet, read-out: Rating BAW
Description: as §1
Bioassays on BAW (Spodoptera exigua)
as §2

Compound | pest or weed control at 0.5 µg/cm2 (CEW (Helicoverpa zea)) | pest or weed control at 50 µg/cm2 (BAW (Spodoptera exigua)) | pest or weed control at 50 µg/cm2 (CEW (Helicoverpa zea)) | Rating CEW (**Tested at 12.5 μg/cm^2) (CEW (Helicoverpa zea); 12.5 μg/cm^2 on diet) | Rating BAW (**Tested at 12.5 μg/cm^2) (BAW (Spodoptera exigua); 12.5 μg/cm^2 on diet)
Cc1ccc(F)c(N2C(=O)CS/C2=N\C(=O)Nc2ccc(-c3ncn(-c4ccc(OC(F)(F)F)cc4)n3)cc2)c1 [Molecule A94] | 50 to 100% | 50 to 100% | – | – | –
Cc1ccccc1N/C(S)=C(\C#N)C(=O)Nc1ccc(-c2ncn(-c3ccc(OC(F)(F)F)cc3)n2)cc1 [Molecule A29, (Z)-2-Cyano-3-mercapto-3-(o-tolylamino)-N-(4-(1-(4-(trifluoromethoxy)phenyl)-1H-1,2,4-triazol-3-yl)phenyl)acrylamide] | – | 0 to 50% | 50 to 100% | – | –
CC(C)c1c(F)cccc1N/C(S)=N/C(=O)Nc1ccc(-c2ncn(-c3ccc(OC(F)(F)F)cc3)n2)cc1 [Molecule A107] | 50 to 100% | 50 to 100% | – | – | –
CC(C)c1ccc(F)cc1N/C(S)=N/C(=O)Nc1ccc(-c2ncn(-c3ccc(OC(F)(F)F)cc3)n2)cc1 [Molecule A82] | 50 to 100% | 50 to 100% | – | – | –
CC(C)(C)c1ccccc1N/C(S)=N/C(=O)Nc1ccc(-c2ncn(-c3ccc(OC(F)(F)F)cc3)n2)cc1 [Molecule A67] | 50 to 100% | 50 to 100% | – | – | –
Cc1ccccc1N/C(S)=C/C(=O)Nc1ccc(-c2ncn(-c3ccc(OC(F)(F)F)cc3)n2)cc1 [Molecule A22, 3-thioxo-3-(o-tolylamino)-N-(4-(1-(4-(trifluoromethoxy)phenyl)-1H-1,2,4-triazol-3-yl)phenyl)propanamide] | – | 50 to 100% | 50 to 100% | – | –
CC(C)c1c(F)cccc1N1C(=O)CS/C1=N\C(=O)Nc1ccc(-c2ncn(-c3ccc(OC(F)(F)F)cc3)n2)cc1 [Molecule A109] | 50 to 100% | 50 to 100% | – | – | –
Cc1c(F)cccc1N1C(=O)CS/C1=N\C(=O)Nc1ccc(-c2ncn(-c3ccc(OC(F)(F)F)cc3)n2)cc1 [Molecule A93] | 50 to 100% | 50 to 100% | – | – | –
CCc1cccc(C)c1N/C(=N\C(=O)Nc1ccc(-c2ncn(-c3ccc(OC(F)(F)F)cc3)n2)cc1)SCOC(=O)C(C)C [Molecule A55] | – | 50 to 100% | 50 to 100% | – | –
Cc1ccc(N/C(S)=N/C(=O)Nc2ccc(-c3ncn(-c4ccc(OC(F)(F)F)cc4)n3)cc2)c(C)c1 [Molecule A68] | 50 to 100% | 50 to 100% | – | – | –
Cc1cccc(C)c1N/C(S)=C/C(=O)Nc1ccc(-c2ncn(-c3ccc(OC(F)(F)F)cc3)n2)cc1 [Molecule A23, 3-((2,6-dimethylphenyl)amino)-3-thioxo-N-(4-(1-(4-(trifluoromethoxy)phenyl)-1H-1,2,4-triazol-3-yl)phenyl)propanamide] | – | 50 to 100% | 50 to 100% | – | –
CC(C)c1ccccc1N1C(=O)CS/C1=C(/C#N)C(=O)Nc1ccc(-c2ncn(-c3ccc(OC(F)(F)F)cc3)n2)cc1 [Molecule A31, (Z)-2-Cyano-2-(3-(2-isopropylphenyl)-4-oxothiazolidin-2-ylidene)-N-(4-(1-(4-(trifluoromethoxy)phenyl)-1H-1,2,4-triazol-3-yl)phenyl)acetamide] | – | 50 to 100% | 50 to 100% | – | –
Cc1cc(C)c(N2CC(C)CS/C2=N\C(=O)Nc2ccc(-c3ncn(-c4ccc(OC(F)(F)F)cc4)n3)cc2)c(C)c1 (stereo not shown) [Molecule A41] | – | 50 to 100% | 50 to 100% | – | –
COc1ccc(N/C(=N/C(=O)Nc2ccc(-c3ncn(-c4ccc(OC(F)(F)F)cc4)n3)cc2)SCS[C@@H]2O[C@@H](C)[C@H](OC)[C@@H](OC)[C@H]2OC)c(C)c1 [Molecule A10, (Z)-(((2S,3R,4R,5S,6S)-3,4,5-Trimethoxy-6-methyltetrahydro-2H-pyran-2-yl)thio)methyl N-(4-methoxy-2-methylphenyl)-N′-((4-(1-(4-(trifluoromethoxy)phenyl)-1H-1,2,4-triazol-3-yl)phenyl)carbamoyl) carbamimidothioate] | – | 50 to 100% | 50 to 100% | – | –
Cc1cccc(N2C(=O)CS/C2=N\C(=O)Nc2ccc(-c3ncn(-c4ccc(OC(F)(F)F)cc4)n3)cc2)c1C [Molecule A75] | 50 to 100% | 50 to 100% | – | – | –
Cc1cccc(C)c1N/C(S)=N/C(=O)Nc1ccc(-c2ncn(-c3ccc(C(F)(F)F)cc3)n2)cc1 [Molecule A12] | – | 50 to 100% | 50 to 100% | – | –
CC(C)c1ccccc1NC(=O)NC(=O)Nc1ccc(-c2ncn(-c3ccc(OC(F)(F)F)cc3)n2)cc1 [Molecule A13, 1-(2-isopropylphenyl)-3-[[4-[1-[4-(trifluoromethoxy)phenyl]-1,2,4-triazol-3-yl]phenyl]carbamoyl]urea] | – | 50 to 100% | 50 to 100% | – | –
CCC1CS/C(=N\C(=O)Nc2ccc(-c3ncn(-c4ccc(OC(F)(F)F)cc4)n3)cc2)N1c1c(C)cc(C)cc1C (stereo not shown) [Molecule A38] | – | 50 to 100% | 50 to 100% | – | –

Compound | pest or weed control at 0.5 µg/cm2 (CEW (Helicoverpa zea)) | pest or weed control at 50 µg/cm2 (BAW (Spodoptera exigua)) | pest or weed control at 50 µg/cm2 (CEW (Helicoverpa zea)) | Rating CEW (**Tested at 12.5 μg/cm^2) (CEW (Helicoverpa zea); 12.5 μg/cm^2 on diet) | Rating BAW (**Tested at 12.5 μg/cm^2) (BAW (Spodoptera exigua); 12.5 μg/cm^2 on diet)
CC(C)c1ccccc1N/C(S)=C/C(=O)Nc1ccc(-c2ncn(-c3ccc(OC(F)(F)F)cc3)n2)cc1 [Molecule A21, 3-((2-isopropylphenyl)amino)-3-thioxo-N-(4-(1-(4-(trifluoromethoxy)phenyl)-1H-1,2,4-triazol-3-yl)phenyl)propanamide] | – | 50 to 100% | 50 to 100% | – | –
Cc1ccc(N/C(S)=N/C(=O)Nc2ccc(-c3ncn(-c4ccc(OC(F)(F)F)cc4)n3)cc2)c(Cl)c1 [Molecule A73] | 50 to 100% | 50 to 100% | – | – | –
CC(C)C(=O)OCS/C(=N/C(=O)Nc1ccc(-c2ncn(-c3ccc(OC(F)(F)F)cc3)n2)cc1)Nc1c(F)cccc1F [Molecule A61] | – | 50 to 100% | 50 to 100% | – | –
CC(C)c1ccccc1N1C(=O)CS/C1=C\C(=O)Nc1ccc(-c2ncn(-c3ccc(OC(F)(F)F)cc3)n2)cc1 [Molecule A24, (Z)-2-(3-(2-isopropylphenyl)-4-oxothiazolidin-2-ylidene)-N-(4-(1-(4-(trifluoromethoxy)phenyl)-1H-1,2,4-triazol-3-yl)phenyl)acetamide] | – | 50 to 100% | 50 to 100% | – | –
Cc1ccc(F)c(N/C(S)=N/C(=O)Nc2ccc(-c3ncn(-c4ccc(OC(F)(F)F)cc4)n3)cc2)c1 [Molecule A89] | 50 to 100% | 50 to 100% | – | – | –
Cc1ccc(N2C(=O)CS/C2=N\C(=O)Nc2ccc(-c3ncn(-c4ccc(OC(F)(F)F)cc4)n3)cc2)c(C(C)C)c1 [Molecule A88] | 50 to 100% | 50 to 100% | – | – | –
O=C(/N=C1\SCC(=O)N1c1ccccc1Cc1ccccc1)Nc1ccc(-c2ncn(-c3ccc(OC(F)(F)F)cc3)n2)cc1 [Molecule A105] | 50 to 100% | 50 to 100% | – | – | –
CCc1ccccc1N/C(=N\C(=O)Nc1ccc(-c2ncn(-c3ccc(OC(F)(F)F)cc3)n2)cc1)SCOC(=O)C(C)C [Molecule A57] | – | 50 to 100% | 50 to 100% | – | –
O=C(/N=C(\S)Nc1ccccc1Cc1ccccc1)Nc1ccc(-c2ncn(-c3ccc(OC(F)(F)F)cc3)n2)cc1 [Molecule A101] | 50 to 100% | 50 to 100% | – | – | –
Cc1cc(C)c(N2/C(=N/C(=O)Nc3ccc(-c4ncn(-c5ccc(OC(F)(F)F)cc5)n4)cc3)SCC2C)c(C)c1 (stereo not shown) [Molecule A40] | – | – | – | A** (50-100) | A** (50-100)
COc1ccc(Cl)cc1N1C(=O)CS/C1=N\C(=O)Nc1ccc(-c2ncn(-c3ccc(OC(F)(F)F)cc3)n2)cc1 [Molecule A111] | 50 to 100% | 50 to 100% | – | – | –
CC(C)c1ccccc1N/C(S)=N/C(=O)Nc1ccc(-c2ccn(-c3ccc(OC(F)(F)F)cc3)n2)cc1 [Molecule A114, N-[[(2-isopropyllphenyl)amino]thioxomethyl]-N′-((4-(1-(4-(trifluoromethoxy)phenyl)-1H-pyrazol-3-yl)phenyl))urea] | 50 to 100% | 50 to 100% | – | – | –
CC(C)C(=O)OCS/C(=N\C(=O)Nc1ccc(-c2ncn(-c3ccc(OC(F)(F)C(F)(F)F)cc3)n2)cc1)Nc1ccccc1C(C)C [Molecule A6, (Z)—((N-(2-Isopropylphenyl)-N′-((4-(1-(4-(pentafluoroethoxy)phenyl)-1H-1,2,4-triazol-3-yl)phenyl)carbamoyl)carbamimidoyl)thio)methyl isobutyrate] | – | 50 to 100% | 50 to 100% | – | –
COc1ccc(N/C(=N/C(=O)Nc2ccc(-c3ncn(-c4ccc(C(F)(F)F)cc4)n3)cc2)SCOC(=O)C(C)C)c(C)c1 [Molecule A1, (E)-((N′-(4-methoxy-2-methylphenyl)-N-((4-(1-(4-(trifluoromethyl)phenyl)-1H-1,2,4-triazol-3-yl)phenyl)carbamoyl)carbamimidoyl)thio) methyl isobutyrate] | – | 50 to 100% | 50 to 100% | – | –
Cc1cc(C)c(N2C(=O)C(C)S/C2=N\C(=O)Nc2ccc(-c3ncn(-c4ccc(OC(F)(F)F)cc4)n3)cc2)c(C)c1 (stereo not shown) [Molecule A37] | – | 50 to 100% | 50 to 100% | – | –
Cc1ccc(Cl)cc1N/C(S)=N/C(=O)Nc1ccc(-c2ncn(-c3ccc(OC(F)(F)F)cc3)n2)cc1 [Molecule A72] | 50 to 100% | 50 to 100% | – | – | –
CC(C)n1nccc1N1C(=O)CS/C1=N\C(=O)Nc1ccc(-c2ncn(-c3ccc(OC(F)(F)F)cc3)n2)cc1 [Molecule A121] | 50 to 100% | 50 to 100% | – | – | –
